Patent publication US20240400577A1, “MODULATORS OF PROTEIN KINASES” (VIBLIOME THERAPEUTICS, LLC, priority 2021, published 2024)

Assays:
Test in all cases: Kinase panel enzymatic inhibition assay (Nanosyn)
Assay type in all cases: biochemical
Details in all cases: compound 5 μM; ATP at Km; 30-minute pre-incubation
CRAF = target: T1, CRAF (Homo sapiens, UniProt P04049)
T1 construct: purchased Nanosyn (contract screening)
Summary of the method: (§1)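 Enzymatic inhibition measured within a panel of at least 300 kinases, using a validated format such as Caliper LabChip mobility shift, ADP detection or time-resolved fluorescence. Compounds tested at 5 μM with ATP at each kinase's Km, after a 30-minute pre-incubation. Values given as percent inhibition or IC50.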

ERBB4 = target: T2, ERBB4 (Homo sapiens, UniProt Q15303)
T2 construct: purchased Nanosyn (contract screening)
T2 sequence (Q15303 26-1308): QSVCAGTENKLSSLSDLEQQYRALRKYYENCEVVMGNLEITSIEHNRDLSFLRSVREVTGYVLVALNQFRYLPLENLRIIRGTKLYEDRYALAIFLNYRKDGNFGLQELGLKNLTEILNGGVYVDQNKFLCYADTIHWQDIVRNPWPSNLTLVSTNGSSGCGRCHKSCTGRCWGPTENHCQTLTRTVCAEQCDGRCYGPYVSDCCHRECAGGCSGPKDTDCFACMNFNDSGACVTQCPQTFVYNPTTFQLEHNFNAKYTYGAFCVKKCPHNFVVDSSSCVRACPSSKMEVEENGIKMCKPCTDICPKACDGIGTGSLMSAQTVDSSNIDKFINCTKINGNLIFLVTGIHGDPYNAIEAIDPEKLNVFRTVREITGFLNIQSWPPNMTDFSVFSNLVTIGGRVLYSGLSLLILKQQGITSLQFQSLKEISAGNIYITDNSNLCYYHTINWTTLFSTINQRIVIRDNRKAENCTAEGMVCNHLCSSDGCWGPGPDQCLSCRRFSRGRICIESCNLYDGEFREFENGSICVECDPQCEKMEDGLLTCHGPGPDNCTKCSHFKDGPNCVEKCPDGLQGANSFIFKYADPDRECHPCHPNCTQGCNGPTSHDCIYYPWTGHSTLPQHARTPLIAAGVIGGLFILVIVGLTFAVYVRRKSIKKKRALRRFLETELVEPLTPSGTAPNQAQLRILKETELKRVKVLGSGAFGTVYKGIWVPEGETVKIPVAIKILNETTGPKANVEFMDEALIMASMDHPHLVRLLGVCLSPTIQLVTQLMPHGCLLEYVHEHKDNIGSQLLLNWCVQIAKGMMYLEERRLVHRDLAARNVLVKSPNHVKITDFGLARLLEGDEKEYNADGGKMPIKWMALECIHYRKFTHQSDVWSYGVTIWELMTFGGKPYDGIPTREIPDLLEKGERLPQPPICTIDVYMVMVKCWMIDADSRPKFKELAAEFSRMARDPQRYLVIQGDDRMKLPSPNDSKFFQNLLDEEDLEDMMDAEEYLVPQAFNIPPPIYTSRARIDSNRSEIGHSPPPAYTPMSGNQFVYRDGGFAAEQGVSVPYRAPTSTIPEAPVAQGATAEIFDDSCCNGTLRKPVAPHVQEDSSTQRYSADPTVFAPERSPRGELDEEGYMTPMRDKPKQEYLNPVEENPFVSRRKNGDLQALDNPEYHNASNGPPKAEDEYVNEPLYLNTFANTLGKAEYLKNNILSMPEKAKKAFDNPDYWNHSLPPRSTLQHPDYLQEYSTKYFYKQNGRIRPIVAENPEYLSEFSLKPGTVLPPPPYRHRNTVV
Summary of the method: as §1

CSK = target: T3, CSK (Homo sapiens, UniProt P41240)
T3 construct: purchased Nanosyn (contract screening)
Summary of the method: as §1

DDR2 = target: T4, DDR2 (Homo sapiens, UniProt Q16832)
T4 construct: purchased Nanosyn (contract screening)
T4 sequence (Q16832 22-855): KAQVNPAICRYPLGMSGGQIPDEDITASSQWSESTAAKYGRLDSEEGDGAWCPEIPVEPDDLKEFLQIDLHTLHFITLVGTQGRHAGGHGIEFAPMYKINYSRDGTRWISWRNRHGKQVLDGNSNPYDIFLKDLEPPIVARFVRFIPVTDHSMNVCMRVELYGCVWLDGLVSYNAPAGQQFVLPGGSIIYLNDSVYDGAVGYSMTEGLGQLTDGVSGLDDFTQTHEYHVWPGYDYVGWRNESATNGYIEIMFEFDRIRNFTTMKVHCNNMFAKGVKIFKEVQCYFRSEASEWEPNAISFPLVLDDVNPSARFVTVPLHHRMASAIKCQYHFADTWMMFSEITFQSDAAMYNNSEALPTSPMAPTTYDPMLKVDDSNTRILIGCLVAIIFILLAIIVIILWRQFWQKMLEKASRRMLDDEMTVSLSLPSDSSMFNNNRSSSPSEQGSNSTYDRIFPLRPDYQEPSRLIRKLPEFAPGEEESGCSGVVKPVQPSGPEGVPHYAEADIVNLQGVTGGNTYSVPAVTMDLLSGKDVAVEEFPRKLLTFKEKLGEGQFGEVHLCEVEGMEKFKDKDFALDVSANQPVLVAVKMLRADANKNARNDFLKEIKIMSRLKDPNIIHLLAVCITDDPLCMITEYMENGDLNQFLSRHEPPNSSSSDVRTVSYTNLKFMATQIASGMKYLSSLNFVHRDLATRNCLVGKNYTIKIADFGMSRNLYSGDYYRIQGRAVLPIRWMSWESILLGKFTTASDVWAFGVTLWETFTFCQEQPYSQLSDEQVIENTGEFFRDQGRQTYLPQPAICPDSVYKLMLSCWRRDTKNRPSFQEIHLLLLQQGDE
Summary of the method: as §1

ARAF = target: T5, ARAF (Homo sapiens, UniProt P10398)
T5 construct: purchased Nanosyn (contract screening)
T5 sequence (P10398 1-606): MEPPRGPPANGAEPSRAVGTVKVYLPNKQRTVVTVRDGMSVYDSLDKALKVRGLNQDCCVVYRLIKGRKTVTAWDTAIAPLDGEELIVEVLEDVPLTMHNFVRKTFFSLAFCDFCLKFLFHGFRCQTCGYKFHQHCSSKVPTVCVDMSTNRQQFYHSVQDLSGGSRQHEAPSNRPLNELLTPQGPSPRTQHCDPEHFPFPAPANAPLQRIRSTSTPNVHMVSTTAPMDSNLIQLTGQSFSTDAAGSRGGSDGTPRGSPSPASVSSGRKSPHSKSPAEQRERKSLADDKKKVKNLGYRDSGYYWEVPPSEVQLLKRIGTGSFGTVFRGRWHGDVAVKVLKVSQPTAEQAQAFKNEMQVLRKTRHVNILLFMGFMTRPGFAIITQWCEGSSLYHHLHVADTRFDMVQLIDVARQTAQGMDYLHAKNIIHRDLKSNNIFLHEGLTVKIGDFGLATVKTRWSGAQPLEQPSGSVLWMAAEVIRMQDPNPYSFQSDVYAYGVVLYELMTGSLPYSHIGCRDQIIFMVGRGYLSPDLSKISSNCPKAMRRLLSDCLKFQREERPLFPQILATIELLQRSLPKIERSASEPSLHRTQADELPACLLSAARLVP
Summary of the method: as §1

PDGFRa = target: T6, PDGFRa (Homo sapiens, UniProt P16234)
T6 construct: Nanosyn (contract laboratory that ran the panel)
T6 sequence (P16234 24-1089): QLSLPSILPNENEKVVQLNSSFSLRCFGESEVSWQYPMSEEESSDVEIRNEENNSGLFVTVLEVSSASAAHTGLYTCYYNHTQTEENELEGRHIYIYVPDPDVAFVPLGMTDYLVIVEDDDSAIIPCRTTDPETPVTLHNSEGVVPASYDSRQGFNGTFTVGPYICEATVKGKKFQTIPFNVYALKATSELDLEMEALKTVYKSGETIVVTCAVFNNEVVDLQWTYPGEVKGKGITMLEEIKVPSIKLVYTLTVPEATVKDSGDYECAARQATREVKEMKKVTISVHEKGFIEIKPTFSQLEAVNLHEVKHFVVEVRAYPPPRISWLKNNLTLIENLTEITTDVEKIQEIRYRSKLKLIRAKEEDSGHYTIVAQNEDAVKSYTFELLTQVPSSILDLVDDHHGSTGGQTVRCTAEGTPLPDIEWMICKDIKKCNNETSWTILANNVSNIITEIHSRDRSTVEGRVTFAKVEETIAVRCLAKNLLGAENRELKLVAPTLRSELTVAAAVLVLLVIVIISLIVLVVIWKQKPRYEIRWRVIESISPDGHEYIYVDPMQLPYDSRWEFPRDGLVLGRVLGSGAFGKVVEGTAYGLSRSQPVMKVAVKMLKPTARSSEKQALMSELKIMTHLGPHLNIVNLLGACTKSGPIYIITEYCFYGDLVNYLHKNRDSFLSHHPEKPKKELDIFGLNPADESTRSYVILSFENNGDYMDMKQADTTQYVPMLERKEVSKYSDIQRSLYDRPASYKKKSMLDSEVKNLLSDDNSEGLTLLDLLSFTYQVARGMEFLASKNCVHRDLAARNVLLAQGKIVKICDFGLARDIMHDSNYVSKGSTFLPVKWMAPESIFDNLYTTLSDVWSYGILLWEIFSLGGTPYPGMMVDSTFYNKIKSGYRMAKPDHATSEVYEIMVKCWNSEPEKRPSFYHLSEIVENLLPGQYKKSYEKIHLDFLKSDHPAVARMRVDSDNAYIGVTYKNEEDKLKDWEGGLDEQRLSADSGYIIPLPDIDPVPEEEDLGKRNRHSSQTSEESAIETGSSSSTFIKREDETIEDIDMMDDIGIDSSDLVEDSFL
Summary of the method: as §1

p38a = target: T7, p38a (Homo sapiens, UniProt Q16539)
T7 construct: Nanosyn (contract laboratory that ran the panel)
Summary of the method: as §1

BRAF = target: T8, BRAF (Homo sapiens, UniProt P15056)
T8 construct: purchased Nanosyn (contract screening)
T8 sequence (P15056 whole entry): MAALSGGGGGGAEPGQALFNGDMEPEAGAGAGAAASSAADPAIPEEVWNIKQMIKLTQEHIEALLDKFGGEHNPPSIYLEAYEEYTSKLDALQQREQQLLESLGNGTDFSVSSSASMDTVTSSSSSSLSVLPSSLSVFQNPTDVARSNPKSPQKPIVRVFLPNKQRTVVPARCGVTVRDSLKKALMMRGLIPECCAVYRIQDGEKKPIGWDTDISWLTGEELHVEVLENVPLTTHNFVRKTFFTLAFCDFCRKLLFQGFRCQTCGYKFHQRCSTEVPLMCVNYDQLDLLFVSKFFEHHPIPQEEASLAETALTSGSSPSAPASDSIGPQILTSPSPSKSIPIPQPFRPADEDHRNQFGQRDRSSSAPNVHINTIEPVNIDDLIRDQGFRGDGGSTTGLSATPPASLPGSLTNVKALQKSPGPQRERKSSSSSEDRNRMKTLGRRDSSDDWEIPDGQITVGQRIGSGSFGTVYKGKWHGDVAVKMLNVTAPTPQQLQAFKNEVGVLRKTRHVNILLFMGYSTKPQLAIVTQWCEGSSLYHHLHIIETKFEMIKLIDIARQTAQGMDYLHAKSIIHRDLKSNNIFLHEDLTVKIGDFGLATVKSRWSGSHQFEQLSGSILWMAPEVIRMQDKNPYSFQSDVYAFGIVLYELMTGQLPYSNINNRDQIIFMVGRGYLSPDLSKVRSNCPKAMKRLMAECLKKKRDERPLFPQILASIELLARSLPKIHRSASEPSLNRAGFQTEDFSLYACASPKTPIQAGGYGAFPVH
Summary of the method: as §1

TNIK = target: T9, TNIK (Homo sapiens, UniProt Q9UKE5)
T9 construct: Nanosyn (contract laboratory that ran the panel)
T9 sequence (Q9UKE5 whole entry): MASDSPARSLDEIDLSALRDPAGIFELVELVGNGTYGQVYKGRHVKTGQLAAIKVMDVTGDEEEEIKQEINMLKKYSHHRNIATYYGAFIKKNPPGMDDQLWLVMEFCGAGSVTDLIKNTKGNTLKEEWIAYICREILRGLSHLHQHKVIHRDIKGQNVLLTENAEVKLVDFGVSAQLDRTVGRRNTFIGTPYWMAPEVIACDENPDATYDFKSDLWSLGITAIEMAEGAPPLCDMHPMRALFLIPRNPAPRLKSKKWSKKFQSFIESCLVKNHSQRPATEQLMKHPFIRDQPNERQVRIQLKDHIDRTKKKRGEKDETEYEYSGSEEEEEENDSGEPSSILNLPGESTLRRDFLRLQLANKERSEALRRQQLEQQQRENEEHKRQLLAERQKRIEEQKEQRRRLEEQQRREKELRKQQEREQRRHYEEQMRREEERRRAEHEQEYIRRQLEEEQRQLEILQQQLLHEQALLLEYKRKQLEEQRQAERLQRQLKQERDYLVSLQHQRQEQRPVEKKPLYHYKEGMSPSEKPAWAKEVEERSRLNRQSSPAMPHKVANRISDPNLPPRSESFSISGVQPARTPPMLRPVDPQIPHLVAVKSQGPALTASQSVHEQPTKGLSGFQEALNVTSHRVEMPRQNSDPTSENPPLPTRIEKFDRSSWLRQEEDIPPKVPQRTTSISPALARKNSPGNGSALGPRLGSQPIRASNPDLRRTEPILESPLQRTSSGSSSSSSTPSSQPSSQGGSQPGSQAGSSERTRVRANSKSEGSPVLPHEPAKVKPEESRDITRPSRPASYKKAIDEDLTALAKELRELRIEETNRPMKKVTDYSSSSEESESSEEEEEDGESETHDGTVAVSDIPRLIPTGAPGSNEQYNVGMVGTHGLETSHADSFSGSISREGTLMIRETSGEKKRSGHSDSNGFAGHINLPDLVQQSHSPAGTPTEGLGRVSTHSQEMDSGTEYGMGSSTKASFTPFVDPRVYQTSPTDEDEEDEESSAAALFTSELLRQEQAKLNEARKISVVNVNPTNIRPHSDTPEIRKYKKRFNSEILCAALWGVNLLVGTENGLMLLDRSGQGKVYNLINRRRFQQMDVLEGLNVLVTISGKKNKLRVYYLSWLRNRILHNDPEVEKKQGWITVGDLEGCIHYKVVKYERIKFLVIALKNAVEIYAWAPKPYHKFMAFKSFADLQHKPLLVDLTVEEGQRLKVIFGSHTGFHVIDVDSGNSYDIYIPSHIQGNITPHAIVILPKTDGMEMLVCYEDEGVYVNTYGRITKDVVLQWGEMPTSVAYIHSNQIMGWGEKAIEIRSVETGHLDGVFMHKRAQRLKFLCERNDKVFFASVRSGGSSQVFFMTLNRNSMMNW
Summary of the method: as §1

HGK = target: T10, HGK (Homo sapiens, UniProt O95819)
T10 construct: purchased Nanosyn (contract screening)
Summary of the method: as §1

MNK2 = target: T11, MNK2 (Homo sapiens, UniProt Q9HBH9)
T11 construct: Nanosyn (contract laboratory that ran the panel)
Summary of the method: as §1

YES = target: T12, YES (Homo sapiens, UniProt P07947)
T12 construct: Nanosyn (contract laboratory that ran the panel)
Summary of the method: as §1

SGK2 = target: T13, SGK2 (Homo sapiens, UniProt Q9HBY8)
T13 construct: Nanosyn (contract laboratory that ran the panel)
T13 sequence (Q9HBY8 1-367): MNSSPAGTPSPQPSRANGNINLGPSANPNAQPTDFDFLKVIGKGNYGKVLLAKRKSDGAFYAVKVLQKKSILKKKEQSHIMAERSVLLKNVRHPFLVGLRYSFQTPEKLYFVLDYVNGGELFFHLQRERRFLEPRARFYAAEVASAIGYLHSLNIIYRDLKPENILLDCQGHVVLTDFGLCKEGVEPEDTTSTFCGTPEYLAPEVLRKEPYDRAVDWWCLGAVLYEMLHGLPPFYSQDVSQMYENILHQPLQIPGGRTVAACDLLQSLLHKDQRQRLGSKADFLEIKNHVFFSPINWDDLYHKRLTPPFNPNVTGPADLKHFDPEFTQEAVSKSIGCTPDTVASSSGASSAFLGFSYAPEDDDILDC
Summary of the method: as §1

T1 sequence (P04049 whole entry): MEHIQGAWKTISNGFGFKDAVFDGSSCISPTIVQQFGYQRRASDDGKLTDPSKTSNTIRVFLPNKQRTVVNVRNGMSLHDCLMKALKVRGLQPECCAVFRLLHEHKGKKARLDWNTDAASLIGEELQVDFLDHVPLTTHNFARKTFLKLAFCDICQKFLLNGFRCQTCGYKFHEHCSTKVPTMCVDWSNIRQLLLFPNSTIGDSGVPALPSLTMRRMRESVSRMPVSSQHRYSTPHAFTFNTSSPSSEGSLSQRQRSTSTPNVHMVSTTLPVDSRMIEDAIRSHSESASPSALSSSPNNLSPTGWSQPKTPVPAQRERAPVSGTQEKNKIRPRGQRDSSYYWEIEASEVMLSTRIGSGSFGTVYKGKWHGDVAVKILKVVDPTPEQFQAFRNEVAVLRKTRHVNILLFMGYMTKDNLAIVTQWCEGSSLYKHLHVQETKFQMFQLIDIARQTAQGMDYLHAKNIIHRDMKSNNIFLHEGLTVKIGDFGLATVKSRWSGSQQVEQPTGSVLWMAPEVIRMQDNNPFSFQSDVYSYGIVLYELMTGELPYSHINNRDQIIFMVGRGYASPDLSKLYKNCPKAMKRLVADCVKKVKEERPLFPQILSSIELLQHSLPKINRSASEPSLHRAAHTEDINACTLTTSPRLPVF

| inhibition at 5 µM (CRAF) [%] | inhibition at 5 µM (ERBB4) [%] | inhibition at 5 µM (CSK) [%] | inhibition at 5 µM (DDR2) [%] | inhibition at 5 µM (ARAF) [%] | inhibition at 5 µM (PDGFRa) [%] | inhibition at 5 µM (p38a) [%] | inhibition at 5 µM (BRAF) [%] | inhibition at 5 µM (TNIK) [%] | inhibition at 5 µM (HGK) [%] | inhibition at 5 µM (MNK2) [%] | inhibition at 5 µM (YES) [%] | inhibition at 5 µM (SGK2) [%] | SMILES |
| --- | --- | --- | --- | --- | --- | --- | --- | --- | --- | --- | --- | --- | --- |
| ≥ 95 | < 79 | < 79 | < 79 | ≥ 95 | < 79 | ≥ 95 | ≥ 95 | < 79 | < 79 | < 79 | < 79 | < 79 | Cc1ccc(NC(=O)c2cc([S+](C)[O-])n(-c3ccc(F)cc3)n2)cc1-c1cc(N2CCOCC2)c(=O)n(C)c1 (stereo not shown) [Ex11, 1-(4-fluorophenyl)-N-(4-methyl-3-(1-methyl-5-morpholino-6-oxo-1,6-dihydropyridin-3-yl)phenyl)-5-(methylsulfinyl)-1H-pyrazole-3-carboxamide] |
| < 79 | 80 to 89 | < 79 | ≥ 95 | ≥ 95 | ≥ 95 | < 79 | ≥ 95 | < 79 | < 79 | < 79 | < 79 | < 79 | Cc1ccc(NC(=O)c2cc(S(C)(=O)=O)n(-c3ccc(F)cc3)n2)cc1Nc1nccc(-c2cccnc2N)n1 [Ex13, N-(3-((4-(2-aminopyridin-3-yl)pyrimidin-2-yl)amino)-4-methylphenyl)-1-(4-fluorophenyl)-5-(methylsulfonyl)-1H-pyrazole-3-carboxamide] |

The remaining lines, values behind:

| SMILES | inhibition at 5 µM (CRAF) [%] | inhibition at 5 µM (ERBB4) [%] | inhibition at 5 µM (CSK) [%] | inhibition at 5 µM (DDR2) [%] | inhibition at 5 µM (ARAF) [%] | inhibition at 5 µM (PDGFRa) [%] | inhibition at 5 µM (p38a) [%] | inhibition at 5 µM (BRAF) [%] | inhibition at 5 µM (TNIK) [%] | inhibition at 5 µM (HGK) [%] | inhibition at 5 µM (MNK2) [%] | inhibition at 5 µM (YES) [%] | inhibition at 5 µM (SGK2) [%] |
| --- | --- | --- | --- | --- | --- | --- | --- | --- | --- | --- | --- | --- | --- |
| Cc1ccc(NC(=O)c2cc(S(C)(=O)=O)n(-c3ccc(F)cc3)n2)cc1-c1cc(N2CCOCC2)c(=O)n(C)c1 [Ex12, 1-(4-fluorophenyl)-N-(4-methyl-3-(1-methyl-5-morpholino-6-oxo-1,6-dihydropyridin-3-yl)phenyl)-5-(methylsulfonyl)-1H-pyrazole-3-carboxamide] | ≥ 95 | < 79 | < 79 | < 79 | ≥ 95 | < 79 | < 79 | ≥ 95 | < 79 | < 79 | < 79 | < 79 | < 79 |
| Cc1ccc(NC(=O)c2cc(S(C)(=O)=O)n(-c3ccc(F)cc3)n2)cc1C#Cc1cnc2cccnn12 [Ex14, 1-(4-fluorophenyl)-N-(3-(imidazo[1,2-b]pyridazin-3-ylethynyl)-4-methylphenyl)-5-(methylsulfonyl)-1H-pyrazole-3-carboxamide] | ≥ 95 | < 79 | 80 to 89 | ≥ 95 | ≥ 95 | < 79 | < 79 | ≥ 95 | < 79 | < 79 | < 79 | < 79 | < 79 |
| CCOC(=O)Nc1cn2nc(Nc3cc(NC(=O)c4cc(S(C)(=O)=O)n(-c5ccc(F)cc5)n4)ccc3C)ccc2n1 [Ex15, ethyl (6-((5-(1-(4-fluorophenyl)-5-(methylsulfonyl)-1H-pyrazole-3-carboxamido)-2-methylphenyl)amino)imidazo[1,2-b]pyridazin-2-yl)carbamate] | ≥ 95 | < 79 | 80 to 89 | ≥ 95 | < 79 | ≥ 95 | ≥ 95 | ≥ 95 | < 79 | < 79 | < 79 | ≥ 95 | < 79 |
| CNC(=O)c1cc(Oc2ccc(NC(=O)c3cc(S(C)(=O)=O)n(-c4ccc(F)cc4)n3)c(F)c2)ccn1 [Ex17, 4-(3-fluoro-4-(1-(4-fluorophenyl)-5-(methylsulfonyl)-1H-pyrazole-3-carboxamido)phenoxy)-N-methylpicolinamide] | < 79 | < 79 | < 79 | < 79 | < 79 | < 79 | < 79 | < 79 | < 79 | < 79 | < 79 | < 79 | < 79 |
| CCOC(=O)Nc1cn2nc(Nc3cc(NC(=O)c4cc([S+](C)[O-])n(-c5ccc(F)cc5)n4)ccc3C)ccc2n1 (stereo not shown) [Ex18, ethyl (6-((5-(1-(4-fluorophenyl)-5-(methylsulfinyl)-1H-pyrazole-3-carboxamido)-2-methylphenyl)amino)imidazo[1,2-b]pyridazin-2-yl)carbamate] | ≥ 95 | < 79 | < 79 | ≥ 95 | < 79 | 90 to 94 | ≥ 95 | 90 to 94 | < 79 | < 79 | < 79 | 90 to 94 | < 79 |
